Key:
pigweed, palmer [1] = experiment: Test C preemergence; assay type: in vivo, Amaranthus palmeri; details: 0 to 100 scale (0 no effect, 100 complete control)
Method in brief: (§1)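 Test material, in non-phytotoxic solvent with surfactant, was sprayed on the soil directly after seeding (preemergence) or on young plants of 2–10 cm with one to two leaves (postemergence). Greenhouse, 10 days; 0–100 visual control scale.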

ragweed [2] = experiment: Test C preemergence; assay type: in vivo, Ambrosia artemisiifolia; details: 0 to 100 scale (0 no effect, 100 complete control)
Method in brief: as §1

soybean [3] = experiment: Test C postemergence; assay type: in vivo, Glycine max; details: 10 days
Method in brief: as §1

oat, wild [4] = experiment: Test C preemergence; assay type: in vivo, Avena fatua; details: 0 to 100 scale (0 no effect, 100 complete control)
Method in brief: as §1

blackgrass [5] = experiment: Test C postemergence; assay type: in vivo, Alopecurus myosuroides; details: 10 days
Method in brief: as §1

ryegrass, Italian [6] = experiment: Test C preemergence; assay type: in vivo, Lolium multiflorum; details: 0 to 100 scale (0 no effect, 100 complete control)
Method in brief: as §1

green foxtail [7] = experiment: Test C postemergence; assay type: in vivo, Setaria viridis; details: 10 days
Method in brief: as §1

barnyardgrass [8] = experiment: Test C preemergence; assay type: in vivo, Echinochloa crusgalli; details: 0 to 100 scale (0 no effect, 100 complete control)
Method in brief: as §1

barnyardgrass [9] = experiment: Test D flooded paddy test; assay type: in vivo, Echinochloa crus-galli; details: 250 g ai/ha, applied to paddy water, visual rating after 13 to 14 days, scale 0 to 100 (0 no effect, 100 complete control)
Method in brief: (§2)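 At the 2-leaf stage, floodwater 3 cm deep received the test compound; that depth persisted throughout. Plants scored visually 13 to 14 days on, 0 (no effect) to 100 (complete control), dash indicating no result.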

horseweed = experiment: Test C postemergence; assay type: in vivo, Erigeron canadensis; details: 10 days
Method in brief: as §1

sedge, umbrella = experiment: Test D flooded paddy test; assay type: in vivo, Cyperus difformis; details: 250 g ai/ha, applied to paddy water, visual rating after 13 to 14 days, scale 0 to 100 (0 no effect, 100 complete control)
Method in brief: as §2

corn [10] = experiment: Test C postemergence; assay type: in vivo, Zea mays; details: 10 days
Method in brief: as §1

kochia [11] = experiment: Test C postemergence; assay type: in vivo, Bassia scoparia; details: 10 days
Method in brief: as §1

soybean [12] = experiment: Test C preemergence; assay type: in vivo, Glycine max; details: 0 to 100 scale (0 no effect, 100 complete control)
Method in brief: as §1

rice = experiment: Test D flooded paddy test; assay type: in vivo, Oryza sativa; details: 250 g ai/ha, applied to paddy water, visual rating after 13 to 14 days, scale 0 to 100 (0 no effect, 100 complete control)
Method in brief: as §2

wheat [13] = experiment: Test C postemergence; assay type: in vivo, Triticum aestivum; details: 10 days
Method in brief: as §1

kochia [14] = experiment: Test C preemergence; assay type: in vivo, Bassia scoparia; details: 0 to 100 scale (0 no effect, 100 complete control)
Method in brief: as §1

corn [15] = experiment: Test C preemergence; assay type: in vivo, Zea mays; details: 0 to 100 scale (0 no effect, 100 complete control)
Method in brief: as §1

ducksalad = experiment: Test D flooded paddy test; assay type: in vivo, Heteranthera limosa; details: 250 g ai/ha, applied to paddy water, visual rating after 13 to 14 days, scale 0 to 100 (0 no effect, 100 complete control)
Method in brief: as §2

blackgrass [16] = experiment: Test C preemergence; assay type: in vivo, Alopecurus myosuroides; details: 0 to 100 scale (0 no effect, 100 complete control)
Method in brief: as §1

ryegrass, Italian [17] = experiment: Test C postemergence; assay type: in vivo, Lolium multiflorum; details: 10 days
Method in brief: as §1

oat, wild [18] = experiment: Test C postemergence; assay type: in vivo, Avena fatua; details: 10 days
Method in brief: as §1

ragweed [19] = experiment: Test C postemergence; assay type: in vivo, Ambrosia artemisiifolia; details: 10 days
Method in brief: as §1

barnyardgrass [20] = experiment: Test C postemergence; assay type: in vivo, Echinochloa crusgalli; details: 10 days
Method in brief: as §1

wheat [21] = experiment: Test C preemergence; assay type: in vivo, Triticum aestivum; details: 0 to 100 scale (0 no effect, 100 complete control)
Method in brief: as §1

green foxtail [22] = experiment: Test C preemergence; assay type: in vivo, Setaria viridis; details: 0 to 100 scale (0 no effect, 100 complete control)
Method in brief: as §1

pigweed, palmer [23] = experiment: Test C postemergence; assay type: in vivo, Amaranthus palmeri; details: 10 days
Method in brief: as §1

[24] = Preemergence, 500 g ai/ha, visual rating after 10 days
[25] = Test C, preemergence, 125 g ai/ha
[26] = 125 g ai/ha, postemergence, 0 to 100 scale, 0 no effect, 100 complete control
[27] = Postemergence, 500 g ai/ha, visual 0 to 100 scale (0 no effect, 100 complete control)

## Cc1ccc(-n2cnc(CS(C)(=O)=O)n2)cc1C(=O)N1C[C@H](C)Oc2c(Cl)cccc21 [Compound 225]
pigweed, palmer [1]; [24]
  Plant response rating, Pigweed, Palmer: 100
pigweed, palmer [1]; [25]
  Pigweed, Palmer plant response rating: 100
Ragweed [2]; [24]
  Plant response rating, Ragweed: 90
Ragweed [2]; [25]
  Ragweed plant response rating: 70
Soybean [3]; [26]
  Plant response rating, Soybean: 100
Soybean [3]; [27]
  Plant response rating, Soybean: 100
oat, wild [4]; [24]
  Plant response rating, Oat, Wild: 90
oat, wild [4]; [25]
  Oat, Wild plant response rating: 60
Blackgrass [5]; [26]
  Plant response rating, Blackgrass: 50
Blackgrass [5]; [27]
  Plant response rating, Blackgrass: 90
ryegrass, Italian [6]; [24]
  Plant response rating, Ryegrass, Italian: 80
ryegrass, Italian [6]; [25]
  Ryegrass, Italian plant response rating: 60
Green foxtail [7]; [26]
  Plant response rating, Foxtail, Green: 20
Green foxtail [7]; [27]
  Plant response rating, Foxtail, Green: 90
Barnyardgrass [8]; [24]
  Plant response rating, Barnyardgrass: 100
Barnyardgrass [8]; [25]
  Barnyardgrass plant response rating: 50
Barnyardgrass [9]
  Plant response rating, Barnyardgrass (Flood): 25
horseweed; [26]
  Plant response rating, Horseweed: 20
horseweed; [27]
  Plant response rating, Horseweed: 80
sedge, umbrella
  Plant response rating, Sedge, Umbrella (Flood): 100
Corn [10]; [26]
  Plant response rating, Corn: 80
Corn [10]; [27]
  Plant response rating, Corn: 90
Kochia [11]; [26]
  Plant response rating, Kochia: 80
Kochia [11]; [27]
  Plant response rating, Kochia: 90
Soybean [12]; [24]
  Plant response rating, Soybean: 90
Soybean [12]; [25]
  Soybean plant response rating: 80
rice
  Plant response rating, Rice (Flood): 15
Wheat [13]; [26]
  Plant response rating, Wheat: 30
Wheat [13]; [27]
  Plant response rating, Wheat: 90
Kochia [14]; [24]
  Plant response rating, Kochia: 100
Kochia [14]; [25]
  Kochia plant response rating: 20
Corn [15]; [24]
  Plant response rating, Corn: 90
Corn [15]; [25]
  Corn plant response rating: 20
ducksalad
  Plant response rating, Ducksalad (Flood): 100
Blackgrass [16]; [24]
  Plant response rating, Blackgrass: 80
Blackgrass [16]; [25]
  Blackgrass plant response rating: 60
ryegrass, Italian [17]; [26]
  Plant response rating, Ryegrass, Italian: 70
ryegrass, Italian [17]; [27]
  Plant response rating, Ryegrass, Italian: 90
oat, wild [18]; [26]
  Plant response rating, Oat, Wild: 60
oat, wild [18]; [27]
  Plant response rating, Oat, Wild: 70
Ragweed [19]; [26]
  Plant response rating, Ragweed: 90
Ragweed [19]; [27]
  Plant response rating, Ragweed: 90
Barnyardgrass [20]; [26]
  Plant response rating, Barnyardgrass: 20
Barnyardgrass [20]; [27]
  Plant response rating, Barnyardgrass: 70
Wheat [21]; [24]
  Plant response rating, Wheat: 80
Wheat [21]; [25]
  Wheat plant response rating: 20
Green foxtail [22]; [24]
  Plant response rating, Foxtail, Green: 100
Green foxtail [22]; [25]
  Foxtail, Green plant response rating: 100
pigweed, palmer [23]; [26]
  Plant response rating, Pigweed, Palmer: 90
pigweed, palmer [23]; [27]
  Plant response rating, Pigweed, Palmer: 100
